Data published in patent publication US11422132B2, “Peptides and uses thereof for diagnosing and treating myasthenia gravis” (The Regents of the University of California, priority 2016, dated 2022).

Tests used:
Assay type in all cases: binding, rat
mAb 198 = assay: Western blot of peptide-IChBD fusion proteins probed with mAb 198; conditions: for mAb 198 binding relative to Torpedo 39MIR: FIG. 5 Western blots, Torpedo 39MIR single mutants
Description: (§1) Chitin beads adsorbed with peptide-IChBD fusion proteins were run on an SDS-PAGE gel and transferred to a nitrocellulose membrane and assayed with the four mAbs.
(§2) Chitin beads adsorbed with peptide-IChBD fusion proteins were run on an SDS-PAGE gel and transferred to a nitrocellulose membrane and assayed with the five mAbs.
The Torpedo (SEQ ID NO:9) and human (SEQ ID NO:8) 39MIRs were made by joining the α(1-12), α(65-79), and α(110-115) segments of their respective a subunits with GS linkers. These two MIR mimics were expressed in E. coli as fusion proteins with an IChBD tag to permit peptide collection on chitin beads. These two peptides differ from each other by eight amino acids (FIG. 2). Both mimics were probed with mAb 198. mAb 198, which was derived from rats that had been immunized with human muscle AChR, is a MIR-directed mAb that binds mammalian as well as Torpedo MIR (13,21). It was also able to passively transfer EAMG to rats and binds to both native assembled AChR and to α-subunit fragments in Western blots (22,23). mAb 198 binds to the Torpedo and human MIR peptide mimics in Western blots (FIG. 3). However, mAb 198 binds to the Torpedo mimic about 50 times more strongly than to the human MIR mimic (FIG. 3).
(§3) To explore the effects of individual amino acid substitutions between the Torpedo and the human AChR MIR mimics, eight peptides were prepared, each with an amino acid substituted from the human sequence into the Torpedo sequence. The single amino acid substitutions in the Torpedo MIR were: N10K (SEQ ID NO:11), L12F (SEQ ID NO:12), R66K (SEQ ID NO:13), A70D (SEQ ID NO:14), I75V (SEQ ID NO:15), R79H (SEQ ID NO:16), D111Q (SEQ ID NO:17), and K115H (SEQ ID NO:18).

mAb 132A [1] = assay: Western blot of peptide-IChBD fusion proteins probed with mAb 132A; parameters: key to mAb 132A, fold-change in binding relative to Torpedo 39MIR: ‘—’ denotes no binding
mAb 132A [2] = assay: as above; conditions: for mAb 132A binding relative to binding to the Torpedo 39MIR: FIG. 5 Western blots, Torpedo 39MIR single mutants; for mAb 132A, fold-change in binding relative to Torpedo 39MIR: Table 1, Western blot of FIG. 5, Torpedo 39MIR single mutants
Protocol: as §1, §2, §3

mAb 35 [3] = assay: Western blot of peptide-IChBD fusion proteins probed with mAb 35; parameters: key to mAb 35, fold-change in binding relative to Torpedo 39MIR: ‘—’ denotes no binding; conditions: for mAb 35 binding, result in words: Western blot; for mAb 35, fold-change in binding relative to Torpedo 39MIR: Table 1, Western blot of FIG. 5, Torpedo 39MIR single mutants; for mAb 35 binding relative to binding to the Torpedo 39MIR: FIG. 5 Western blots, Torpedo 39MIR single mutants
Protocol: as §1, §2, §3

mAb 35 [4] = assay: as above
mAb 334 = assay: Western blot of peptide-IChBD fusion proteins probed with mAb 334; conditions: for mAb 334 binding relative to Torpedo 39MIR: FIG. 5 Western blots, Torpedo 39MIR single mutants; for mAb 334, fold-change in binding relative to Torpedo 39MIR: Table 1, Western blot of FIG. 5, Torpedo 39MIR single mutants
Protocol: as §2, §3

[5] = Table 2, Western blot of FIG. 7, human 39MIR multiple mutants
[6] = Table 1, Western blot of FIG. 5, Torpedo 39MIR single mutants
[7] = Table 3, single-substitution human 39MIR mutants

Sequence	mAb 198, fold-change in binding relative to Torpedo 39MIR (mAb 198; [5]) [fold-change]	mAb 198 binding, result in words (mAb 198; Western blot)	mAb 132A, fold-change in binding relative to Torpedo 39MIR (mAb 132A [1]; [5]) [fold-change]	mAb 132A binding, result in words (mAb 132A [2]; Western blot)	mAb 35 binding, result in words (mAb 35 [3])	mAb 35, fold-change in binding relative to Torpedo 39MIR (mAb 35 [4]; [5]) [fold-change]	mAb 334 binding relative to Torpedo 39MIR (mAb 334) [×]	mAb 334, fold-change in binding relative to Torpedo 39MIR (mAb 334) [fold-change]	mAb 198 binding relative to Torpedo 39MIR (mAb 198) [×]	mAb 198, fold-change in binding relative to Torpedo 39MIR (mAb 198; [6]) [fold-change]	mAb 132A binding relative to binding to the Torpedo 39MIR (mAb 132A [2]) [×]	mAb 132A, fold-change in binding relative to Torpedo 39MIR (mAb 132A [2]) [fold-change]	mAb 35, fold-change in binding relative to Torpedo 39MIR (mAb 35 [3])	mAb 35 binding relative to binding to the Torpedo 39MIR (mAb 35 [3]) [×]	mAb 198, fold-change in binding relative to Torpedo 39MIR (mAb 198; [7]) [fold-change]	mAb 198 binding compared to its binding to the human 39MIR (mAb 198; human 39MIR mutants, relative to human 39MIR) [×]	mAb 132A, fold-change in binding relative to Torpedo 39MIR (mAb 132A [1]; [7])	mAb 35, fold-change in binding relative to Torpedo 39MIR (mAb 35 [4]; [7]) [fold-change]	mAb 35 binding compared to the Torpedo 39MIR peptide (mAb 35 [4]; single point mutated human 39MIR peptides)
SEHETRLVANLFGGGSLKWNPADYGGVKKIHGSLQYTGH (synthetic main immunogenic region (MIR) peptide) [K10N/D70A, Human 39MIR double mutant (K10N/D70A)]	0.72	restored binding	0.16	restored binding	restored binding	0.31													
SEHETRLVANLLGGGSLRWNPADYGGIKKIRGSLQYTGK (synthetic main immunogenic region (MIR) peptide) [Mutant D111Q, Torpedo 39MIR single mutant (D111Q)]					did not bind		0.02	0.02	0.16	0.16	0.07	0.07	—						
SEHETRLVANLLGGGSLKWNPADYGGIKKIRGSLDYTGK (synthetic main immunogenic region (MIR) peptide) [Mutant R66K, Torpedo 39MIR single mutant (R66K)]							2.75	2.75		1.03	1.55	1.55	0.62 fold-change	0.62					
SEHETRLVANLFGGGSLRWNPADYGGIKKIRGSLDYTGK (synthetic main immunogenic region (MIR) peptide) [Mutant L12F, Torpedo 39MIR single mutant (L12F)]							0.88	0.88		0.90	1.10	1.10	1.42 fold-change	1.42					
SEHETRLVAKLLGGGSLRWNPADYGGIKKIRGSLDYTGK (synthetic main immunogenic region (MIR) peptide) [Mutant N10K, Torpedo 39MIR single mutant (N10K)]							0.59	0.59	0.82	0.82	0.03	0.03	0.29 fold-change	0.29					
SEHETRLVANLLGGGSLRWNPADYGGVKKIRGSLDYTGK (synthetic main immunogenic region (MIR) peptide) [Mutant I75V, Torpedo 39MIR single mutant (I75V)]					did not bind		0.03	0.03	0.16	0.16	0.07	0.06	—						
SEHETRLVAKLFGGGSLKWNPDDYGGIKKIHGSLQYTGH (synthetic main immunogenic region (MIR) peptide) [Mutant V75I, Human 39MIR single mutant (V75I)]					restored mAb 35 binding										0.65	40	—	0.03	0.03
